From patent publication US20080003215A1, “Use of pre-dissolved pristinamycin-type and polyether ionophore type antimicrobial agents in the production of ethanol” (priority 2006, published 2008)
Read-outs that look alike come from different tables or passages of the source.

How the values were obtained:
[1] = Solubility of virginiamycin in several solvents (applicant's determination); assay type: physicochemical
Procedure: The solubility of virginiamycin in several solvents were determined. Each of these solvents can be useful in solubilized organic liquid comprising antimicrobial material, an emulsion of the same in water, or in both. […] Such a solution is stable, pumpable, and useful not only for treatments of ethanol-producing facilities but for a number of other uses where virginiamycin is used.

[2] = Rate of dissolution of powdered virginiamycin in stirred water; assay type: physicochemical; conditions: 0.1 gram of 5.2 to 10 micron average particle size powder in 4 liters of water, continuously stirred
Text: The solubility of monensin, virginiamycin, and similar pristinamycin-type antimicrobial agents and polyether ionophore-type antimicrobial agents in water is very low. Much more important, however, is the rate of dissolution of small granular pristinamycin-type antimicrobial agents and polyether ionophore-type antimicrobial agents in water. A 0.1 gram sample of a 5.2 to 10 micron average particle size virginiamycin was placed in a beaker with 4 liters of water, and the composition was continuously stirred. The presence of undissolved crystals was very evident.

[3] = test system: L. plantarum; assay: Development of resistance test (10 week duration); assay type: cell-based; conditions: 10 week duration of the test
Text: One very effective control program involves the introduction of pristinamycin-type antimicrobial agents, and particularly virginiamycin, to the process. […] Usually, the “waste” byproduct, known as “Dried Distillers Grains with Solubles (DDGS), is sold as animal feed, going 45% to dairy, 35% to beef, 15% to swine, and 5% to poultry industries. This is an important factor in the profitability of an ethanol production process, and the total amount of this byproduct produced per year is on the order of 3.5 million metric tons per year. The presence of residual antimicrobial agents in this material can adversely affect the value of this byproduct, as small residual amounts of antimicrobial agents in feed will promote the development of agent-resistant microorganisms. We have tested DDGS samples from 8 major ethanol producers using virginiamycin to control microorganisms and found no detectable amount of virginiamycin in the DDGS (<1 ppm via the validated Eurofins analysis and <1 ppb via an unvalidated experimental analytical procedure). […] Generally, however, the virginiamycin in mash is destroyed by drying so virginiamycin must be re-added to the feed if so desired. Other effective control agents include polyether ionophore-type antimicrobial agents, which provide many of the benefits obtained with pristinamycin-type antimicrobial agents. […]

[4] = cited from earlier work
[5] = solvent: 50% NMP/50% Ethyl lactate

## virginiamycin
[1]; ethanol with water, at least 75% by weight ethanol (balance water)
  Concentration that can be dissolved: ~70000 µg/mL
[1]; solvent: 2-ethyl hexyl lactate
  Virginiamycin solubility in grams per liter of solvent: 24 grams per liter
[1]; solvent: 2-ethyl hexyl lactate, listed as Virginiamycin
  Virginiamycin solubility in grams per liter of solvent: ˜24 grams per liter
[1]; solvent: 50% NMP/50% DMSO
  Virginiamycin solubility in grams per liter of solvent: ˜335 grams per liter
[1]; [5]
  Gel formation of virginiamycin solution: forms a hard gel at 280
  Virginiamycin solubility in grams per liter of solvent: <200 grams per liter
[1]; solvent: 70% ethanol/30% water
  Virginiamycin solubility in grams per liter of solvent: ˜70 grams per liter
[1]; solvent: Dimethylsulfoxide (DMSO)
  Virginiamycin solubility in grams per liter of solvent: ˜270 grams per liter
[1]; solvent: Ethyl lactate
  Virginiamycin solubility in grams per liter of solvent: about 92 grams per liter
[1]; solvent: Ethyl lactate, listed as Virginiamycin
  Virginiamycin solubility in grams per liter of solvent: ˜92 grams per liter
[1]; solvent: Methyl soyate ester
  Virginiamycin solubility in grams per liter of solvent: <1 gram per liter
[1]; solvent: N,N-dimethylcapramide
  Virginiamycin solubility in grams per liter of solvent: ˜70 grams per liter
[1]; solvent: N-methylpyrrolidone (NMP)
  Virginiamycin solubility in grams per liter of solvent: ˜260 grams per liter
[1]; solvent: NMP, over a short period of time
  Amount of virginiamycin dissolved per liter: about 290 grams per liter
[1]; solvent: tetrahydrofurfuryl alcohol
  Virginiamycin solubility in grams per liter of solvent: <160 grams per liter
[2]
  Time until only a few crystals remained visible (dissolution): on the order of an hour
[3]
  Time until L. plantarum developed resistance: no development of resistance
[4]; solvent: 1% ethanol in water
  Solubility (literature data, "virginiamycin-type" compounds): 0.002 mg/mL
[4]; solvent: DMSO
  Solubility (literature data, "virginiamycin-type" compounds): > 100 mg/mL
[4]; solvent: acetone, disproportionate solubilities for Type A and Type B
  Solubility (literature data, "virginiamycin-type" compounds): ~190 mg/mL
[4]; solvent: amylacetate
  Solubility (literature data, "virginiamycin-type" compounds): > 4 mg/mL
[4]; solvent: benzene
  Solubility (literature data, "virginiamycin-type" compounds): > 3 mg/mL
[4]; solvent: butanol
  Solubility (literature data, "virginiamycin-type" compounds): > 10 mg/mL
[4]; solvent: carbon tetrachloride
  Solubility (literature data, "virginiamycin-type" compounds): 0.02 mg/mL
[4]; solvent: chloroform
  Solubility (literature data, "virginiamycin-type" compounds): 150 mg/mL
[4]; solvent: dimethylformamide
  Solubility (literature data, "virginiamycin-type" compounds): 200 mg/mL
  Virginiamycin that can be dissolved (literature data): 200 grams
[4]; solvent: dimethylsulfoxide
  Virginiamycin that can be dissolved (literature data): 200 grams
[4]; solvent: dioxane
  Solubility (literature data, "virginiamycin-type" compounds): 130 mg/mL
[4]; solvent: ethanol
  Solubility (literature data, "virginiamycin-type" compounds): 70 mg/mL
[4]; solvent: ether, disproportionate solubilities for Type A and Type B
  Solubility (literature data, "virginiamycin-type" compounds): 11 mg/mL
[4]; solvent: ethyl acetate, disproportionate solubilities for Type A and Type B
  Solubility (literature data, "virginiamycin-type" compounds): ~205 mg/mL
[4]; solvent: hexane
  Solubility (literature data, "virginiamycin-type" compounds): 0.2 mg/mL
[4]; solvent: isopropanol
  Solubility (literature data, "virginiamycin-type" compounds): > 10 mg/mL
[4]; solvent: methanol
  Solubility (literature data, "virginiamycin-type" compounds): 25 mg/mL
[4]; solvent: methylethylketone
  Solubility (literature data, "virginiamycin-type" compounds): 35 mg/mL
[4]; solvent: toluene, disproportionate solubilities for Type A and Type B
  Solubility (literature data, "virginiamycin-type" compounds): 82 mg/mL
[4]; solvent: water
  Solubility (literature data, "virginiamycin-type" compounds): 0.0002 mg/mL
[4]; water, background statement
  Solubility in water: 0.0001 grams/l
